Data set [1] concerns the target T1, carboxylesterase 1 (CES1) (Homo sapiens, UniProt P23141).
T1 sequence (P23141 18-567): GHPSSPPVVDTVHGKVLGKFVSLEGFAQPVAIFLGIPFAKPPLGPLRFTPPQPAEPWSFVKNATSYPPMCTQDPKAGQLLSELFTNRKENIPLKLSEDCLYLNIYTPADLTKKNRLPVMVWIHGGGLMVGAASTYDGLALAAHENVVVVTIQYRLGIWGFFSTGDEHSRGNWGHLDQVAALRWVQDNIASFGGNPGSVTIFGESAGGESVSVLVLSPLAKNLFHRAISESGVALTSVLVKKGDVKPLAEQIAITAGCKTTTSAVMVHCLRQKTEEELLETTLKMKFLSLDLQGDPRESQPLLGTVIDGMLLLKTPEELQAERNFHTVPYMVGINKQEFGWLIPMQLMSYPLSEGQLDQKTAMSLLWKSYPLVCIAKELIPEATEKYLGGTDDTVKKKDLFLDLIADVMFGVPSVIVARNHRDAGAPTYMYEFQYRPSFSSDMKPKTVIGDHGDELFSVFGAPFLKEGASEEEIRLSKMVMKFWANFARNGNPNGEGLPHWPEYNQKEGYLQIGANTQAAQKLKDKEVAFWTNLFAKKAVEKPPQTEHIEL
Nature of the data set: inhibition of recombinant human CES1. Type of data set: biochemical.

Data set [2] has as its target T2, carboxylesterase 2 (CES2) (Homo sapiens, UniProt O00748).
T2 sequence (O00748 27-559): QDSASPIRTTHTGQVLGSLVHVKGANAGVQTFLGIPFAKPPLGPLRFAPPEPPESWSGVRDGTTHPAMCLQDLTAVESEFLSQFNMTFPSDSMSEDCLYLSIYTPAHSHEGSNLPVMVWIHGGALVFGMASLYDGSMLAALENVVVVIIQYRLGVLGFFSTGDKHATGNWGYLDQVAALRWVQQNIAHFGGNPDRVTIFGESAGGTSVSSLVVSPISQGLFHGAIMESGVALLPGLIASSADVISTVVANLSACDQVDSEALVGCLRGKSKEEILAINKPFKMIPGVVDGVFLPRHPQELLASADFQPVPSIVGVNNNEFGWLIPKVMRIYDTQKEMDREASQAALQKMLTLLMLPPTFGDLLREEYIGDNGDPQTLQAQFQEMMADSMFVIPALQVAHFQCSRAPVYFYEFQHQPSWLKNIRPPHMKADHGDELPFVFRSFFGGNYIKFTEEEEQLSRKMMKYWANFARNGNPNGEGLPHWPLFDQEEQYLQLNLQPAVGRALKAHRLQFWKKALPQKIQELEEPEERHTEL
Nature of the data set: inhibition of recombinant human CES2. Type of data set: biochemical.

Substrate in data set [3]: CCOC(=O)C1=C[C@@H](OC(CC)CC)[C@H](NC(C)=O)[C@@H](N)C1
Kind of data set: purified protein. It is filed as biochemical, Homo sapiens.

Broadly, the IC50 is the midpoint of a concentration-inhibition curve. As a reminder, the Km is the concentration of substrate that gives half-maximal velocity.

Turning to `Cc1cc(OC(=O)NC2CCCCC2)ccc1F` [WWL50, 4-fluoro-3-methylphenyl cyclohexylcarbamate], the figures for the IC50 in data set [1] and in data set [2] were 4.3 ± 0.6 nM and 429 ± 2.6 nM, respectively.

B1: carboxylesterase 1 (CES1) (Homo sapiens) (protein)
chain: T1 sequence (P23141 18-567)
Take B1: the Km in data set [3] amounted to 2900 µM.

(Values after PMC4694564 (Molecular pharmaceutics, 2015).)
